# Source: patent publication US9302981B2, “Synthesis, methods of using, and compositions of cycloalkylmethylamines” (Reviva Pharmaceuticals, Inc., priority 2006, dated 2016)
# Tests used:
# [1] = target: human recombinant dopamine transporter (DAT) (Homo sapiens (Human), UniProt Q01959); assay: Radioligand binding assay, dopamine transporter (MDS Pharma); settings: for nH (Hill coefficient): DAT, slope of the competitive binding curve
# Procedure: (§1) The monoamine transporters inhibitory activities of selected compounds (54b and 54d) are reported herein. The compounds were evaluated at MDS Pharma services (22011 Drive SE, Bothell, Wash. 98021, USA) using well established radioligand binding assays protocols (Galli, A. et al., J. Exp. Biol. 1995, 198, 2197-2212; Giros, B. et al., Trends Pharmcol. Sci. 1993, 14, 43-49; Gu, H. et al., J. Biol. Chem. 1994, 269(10), 7124-7130; Shearman, L. P. et al, Am. J. Physiol., 1998, 275 (6 Pt 1), C1621-1629; Wolf, W. A. et al., J. Biol. Chem. 1992, 267(29), 20820-20825). The human recombinant transporter proteins dopamine (DAT), norepinephrine (NET) and serotonin (SERT) were selected for the in vitro assays. The CHO-K1 cells expressed with human recombinant dopamine transporter (DAT) (MDS catalog 220320) was used for evaluating the dopamine transporter inhibitory activity. Whereas, MDCK cells expressed with human recombinant transporters norepinephrine (NET) (MDS catalog no. 204410) and serotonin (SERT) (MDS catalog no. 274030) were used for evaluating the norepinephrine transporter (NET) and serotonin transporter (SERT) inhibitory activities, respectively. The radioligand binding assays were carried out at four different test concentrations and the test concentrations were 1 nM, 10 nM, 0.1 μM, and 1 μM.
# (§2) The assays were carried out in duplicates and the quantitative data are reported as IC50, Ki, and nH. Where presented, IC50 values were determined by a non-linear, least squares regression analysis using MathIQ™ (ID Business Solutions Ltd. UK). […] Where presented, the Hill coefficient (nH), defining the slope of the competitive binding curve, was calculated using MathIQ™.
# [2] = target: human recombinant norepinephrine transporter (NET) (Homo sapiens (Human), UniProt P23975); assay: Radioligand binding assay, norepinephrine transporter (MDS Pharma); settings: for nH (Hill coefficient): NET, slope of the competitive binding curve
# Chain of human recombinant norepinephrine transporter (NET) (P23975 whole entry): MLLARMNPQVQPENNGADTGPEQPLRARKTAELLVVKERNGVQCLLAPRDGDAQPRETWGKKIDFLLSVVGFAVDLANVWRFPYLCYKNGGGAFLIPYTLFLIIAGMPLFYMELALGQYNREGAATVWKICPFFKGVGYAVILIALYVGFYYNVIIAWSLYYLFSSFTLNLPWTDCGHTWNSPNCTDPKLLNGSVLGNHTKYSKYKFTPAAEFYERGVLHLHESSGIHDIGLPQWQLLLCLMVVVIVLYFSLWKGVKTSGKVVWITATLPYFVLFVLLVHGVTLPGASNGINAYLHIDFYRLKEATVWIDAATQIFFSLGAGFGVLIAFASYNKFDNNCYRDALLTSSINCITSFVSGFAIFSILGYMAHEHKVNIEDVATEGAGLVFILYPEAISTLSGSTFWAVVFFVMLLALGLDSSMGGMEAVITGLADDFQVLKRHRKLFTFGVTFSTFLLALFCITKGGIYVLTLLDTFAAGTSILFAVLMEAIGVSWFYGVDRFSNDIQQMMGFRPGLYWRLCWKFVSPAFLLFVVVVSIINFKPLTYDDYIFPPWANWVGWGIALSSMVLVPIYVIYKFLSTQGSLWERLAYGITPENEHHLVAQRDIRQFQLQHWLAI
# Procedure: The human recombinant transporter proteins dopamine (DAT), norepinephrine (NET) and serotonin (SERT) were selected for the in vitro assays. […] The radioligand binding assays were carried out at four different test concentrations and the test concentrations were 1 nM, 10 nM, 0.1 μM, and 1 μM.
# as §2
# [3] = target: human recombinant serotonin transporter (SERT) (Homo sapiens (Human), UniProt P31645); assay: Radioligand binding assay, serotonin transporter (MDS Pharma); settings: for nH (Hill coefficient): SERT, slope of the competitive binding curve
# Procedure: as §1, §2
Structure (SMILES),IC50 [1] [µM],Ki [1] [µM],nH (Hill coefficient) [1],IC50 [2] [µM],Ki [2] [µM],nH (Hill coefficient) [2],IC50 [3] [µM],Ki [3] [µM],nH (Hill coefficient) [3]
"CCOC(=O)C(CC)NC(CC(C)C)C1(c2ccc(Cl)cc2)CCC1 (stereo not drawn) [Compound 54b, Ethyl 2-(1-(1-(4-chlorophenyl)cyclobutyl)-3-methylbutylamino]butanoate]",0.0569,0.0452,0.826,0.121,0.12,0.832,0.14,0.0228,0.677
"CCC(NC(CC(C)C)C1(c2ccc(Cl)cc2)CCC1)C(=O)OCC(C)C (stereo not drawn) [Compound 54d, Isobutyl 2-(1-(1-(4-chlorophenyl)cyclobutyl)-3-methylbutylamino]butanoate]",0.37,0.294,0.943,0.182,0.18,1.04,0.415,0.0676,0.578
